These are literature values, as cited in patent publication EP2818484A1, “Synergistic combination of an anti-IgE antibody and an EP2 receptor agonist” (Universitat Autònoma de Barcelona, priority 2013, dated 2014).

This series relates to human lung mast cells. The note with it: Kay et al., British Journal of Pharmacology 2006, 147, 707.

Take `CCCCC[C@H](O)/C=C/[C@H]1[C@H](O)CC(=O)[C@@H]1C/C=C\CCCC(=O)O` [PGE2]: the “activation of human lung mast cells” value was “inhibit activation”.

Regarding `CCCC1([C@H](O)C/C=C/[C@H]2[C@H](O)CC(=O)[C@@H]2CCCCCCC(=O)OC)CCC1` [butaprost], the “activation of human lung mast cells” value is reported as “inhibit activation”.
